Patent EP3723746B1, “PHENOXY ACIDS FOR THE TREATMENT OF NEUROMUSCULAR DISORDERS” (NMD Pharma A/S, priority 2017, dated 2019)

What was measured:
CIC-1 channels = target: T1, CIC-1 channels (Rattus norvegicus, UniProt P35524); test: Electrophysiological measurement of compound inhibition of CIC-1 in rat muscle (Gm, three micro-electrode technique, soleus muscle fibres); type: cell-based; details: reduction of Gm in rat soleus muscle fibres, approx. 30°C; mean ± spread, n = number of experiments
T1 construct: from tissue; host or cells: whole soleus muscle of 12-14 week old Wistar rats
T1 sequence (P35524 1-994): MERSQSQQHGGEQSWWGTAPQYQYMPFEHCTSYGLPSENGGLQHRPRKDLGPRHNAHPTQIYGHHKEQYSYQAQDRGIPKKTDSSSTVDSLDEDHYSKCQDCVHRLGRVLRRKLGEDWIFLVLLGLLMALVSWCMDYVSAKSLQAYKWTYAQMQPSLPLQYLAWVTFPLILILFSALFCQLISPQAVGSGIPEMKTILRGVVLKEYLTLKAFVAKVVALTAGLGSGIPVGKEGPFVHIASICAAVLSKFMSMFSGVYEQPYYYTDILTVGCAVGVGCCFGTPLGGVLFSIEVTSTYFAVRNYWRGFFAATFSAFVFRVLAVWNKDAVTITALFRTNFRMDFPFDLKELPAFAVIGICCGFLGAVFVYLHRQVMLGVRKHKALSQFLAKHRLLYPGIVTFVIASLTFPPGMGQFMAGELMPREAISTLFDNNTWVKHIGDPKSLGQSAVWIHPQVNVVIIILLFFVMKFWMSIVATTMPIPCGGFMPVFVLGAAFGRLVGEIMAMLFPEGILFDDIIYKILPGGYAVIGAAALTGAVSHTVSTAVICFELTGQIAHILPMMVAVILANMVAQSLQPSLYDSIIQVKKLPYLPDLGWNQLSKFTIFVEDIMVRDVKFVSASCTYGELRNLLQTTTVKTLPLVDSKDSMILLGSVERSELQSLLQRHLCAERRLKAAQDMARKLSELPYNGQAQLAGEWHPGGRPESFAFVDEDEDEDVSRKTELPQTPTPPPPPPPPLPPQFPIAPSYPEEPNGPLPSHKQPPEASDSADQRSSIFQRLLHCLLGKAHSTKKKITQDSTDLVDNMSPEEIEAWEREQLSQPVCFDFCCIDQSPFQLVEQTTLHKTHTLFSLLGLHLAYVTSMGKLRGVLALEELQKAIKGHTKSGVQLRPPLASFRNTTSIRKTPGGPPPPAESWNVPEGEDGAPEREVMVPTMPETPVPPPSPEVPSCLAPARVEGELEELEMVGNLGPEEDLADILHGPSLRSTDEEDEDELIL
Text: Table 2: Inhibition of CIC-1 ion channel using compounds of the invention

soleus muscles = test: Measurement of force in an in vitro model: recovery of contractile force of isolated rat soleus nerve-muscle preparation after tubocurarine
Method: Recovery of force is quantified as the percentage of the force prior to tubocurarine that is recovered by the compound.
The current invention relates to compounds that inhibit CIC-1 ion channels and increase muscle excitability and thereby improve muscle function in clinical conditions where muscle activation is failing. Such conditions result in loss of contractile function of skeletal muscle, weakness and excessive fatigue. In this series of experiments the compounds were tested for their ability to restore contractile function of isolated rat muscle when the neuromuscular transmission had been compromised akin to neuromuscular disorders.
Experimentally, soleus muscles from 4-5 week old rats were isolated with the motor nerve remaining attached. The nerve-muscle preparations were mounted in experimental setups that enabled electrical stimulation of the motor nerve. Stimulation of the motor nerve led to activation of the muscle fibres and ensuing force production that was recorded.
After mounting the nerve-muscle preparation in the experimental setup, the contractile function of the muscle was initially assessed under the control conditions (Figure 2A). […] The experimental condition mimics the failing neuromuscular transmission in a range of neuromuscular disorders. After addition of tubocurarine the contractile force declined over the next 90 mins to 10-50 % of the control force. 50 µM of the test compound was then added and the contractile force recovered despite the continued presence of tubocurarine. To quantify the ability of the compound to restore force the percentage of the initial force that was restored was determined after 40 mins of compound exposure (Figure 2B) and the point increase is reported in Table 3. Table 3: Percentage increase of initial force that was restored

Lewis rats = test: Measurement of in situ muscle contractile characteristics (isometric hindlimb force under cisatracurium block); type: in vivo; details: 40 mg/kg i.v., cisatracurium infusion, 3 experiments
Method: Isometric hindlimb force was measured in 12-week old female Lewis rats in the presence and absence of compound.
Rats were placed under anesthesia with isoflurane (2-4%), intubated and subsequently connected to a micro ventilator (Microvent 1, Hallowell EMC, US). Two stimulation electrodes were inserted through the skin to stimulate the sciatic nerve. A small incision was made proximal to the ankle, to expose the Achilles tendon, which was tied by cotton string, and connected to a force transducer (Fort250, World Precision Instruments) with adjustable position (Vernier control). The Achilles tendon was then cut distal to the attached cotton string. The rat was placed on a heated pad, and to prevent movement artefacts from contraction of the ankle dorsiflexors, the foot was fixated by tape on a footplate.
Muscle contractile properties were assessed by applying an electrical current (under supramaximal voltage conditions) to the nerve and recording the force generated by the muscle. The muscle was stretched until maximal force was obtained, when assessed by 2 Hz stimulation. Isometric force was measured every 30 seconds at 12 Hz (Twitch), 10 pulses, and at every 5 minutes at 80 Hz (Tetanic) for 1 second (80 pulses). This stimulation pattern was employed throughout the experiment, expect in few cases where 80 Hz stimulation was replaced by 12 Hz (10 pulses). […] When the level of neuromuscular inhibition was stable, the test article was injected i.v. at the chosen concentration. The effect of test article was assessed on its ability to increase force generated from the stimulation pattern applied. The effect was assessed in the ability to increase force per se (tetanic, 80 Hz, stimulation), and the ratio between individual twitch peaks (12 Hz stimulation). The effect was monitored for at least 1 hour after injection of test article. In addition, the time from injection of test article to maximal effect on force (both twitch and tetanic) was noted and the time for the effect to disappear (return to baseline), if possible. When appropriate the infusion of neuromuscular blocking agent was ceased, with the stimulation pattern continued, and the return of force to control levels was monitored. Animals were sacrificed by cervical dislocation while still fully sedated.

- EC50 (CIC-1 channels): 3.5 ± 0.6 µM
Compound: C#Cc1cc(Br)ccc1O[C@@H](C)C(=O)O [Compound A-19, (2S)-2-(4-bromo-2-ethynylphenoxy)propanoic acid]
- average force (AUC) relative to initial force (soleus muscles; Figure 2: 50 µM compound after 90 min incubation in tubocurarine, 3 muscles): recovered
- activation at 50 µM (soleus muscles; Rattus norvegicus, 40 min, 50 µM test compound, after 90 mins 115 nM tubocurarine, percentage of the initial force restored after 40 mins of compound exposure, read-out: Point increase): 31%
- average increase in twitch peaks (Lewis rats; 12 Hz stimulation): 9.6%
- average increase in tetanic force (Lewis rats; 80 Hz stimulation): 44.5%
